Assay results published in the NIST ThermoML archive (doi:10.1016/j.tca.2009.07.008).
± gives the expanded uncertainty stated by the source. One block for each molecule: values may come before it.

How the values were obtained:
[1] = 303.15 K; 101.33 kPa; Liquid; Capillary tube (Ostwald / Ubbelohde) method
[2] = mn = molality of the nth substance listed, in mol/kg; settings: 303.15 K, 101 kPa, Liquid, Capillary tube (Ostwald / Ubbelohde) method

Structure (SMILES): C1CCOC1 [tetrahydrofuran]
viscosity [1]: 0.326 ± 0.0047 mPa·s

Structure (SMILES): C1COCCO1 [1,4-dioxane]
viscosity [1]: 1.075 ± 0.0079 mPa·s

Structure (SMILES): CCCNCCC [dipropylamine]
viscosity [1]: 0.5118 ± 0.0058 mPa·s

Structure (SMILES): CCCCN [1-butanamine]
viscosity [1]: 0.4442 ± 0.0054 mPa·s

Structure (SMILES): CCN(CC)CC [triethylamine]
viscosity [1]: 0.3296 ± 0.0049 mPa·s

Structure (SMILES): CCCCN [1-butanamine] + C1CCOC1
viscosity ([2]; m1 = 0.1429): 0.329 ± 0.0047 mPa·s | viscosity ([2]; m1 = 0.2304): 0.3312 ± 0.0047 mPa·s | viscosity ([2]; m1 = 0.5054): 0.336 ± 0.0047 mPa·s | viscosity ([2]; m1 = 0.588): 0.3398 ± 0.0047 mPa·s | viscosity ([2]; m1 = 0.7153): 0.3442 ± 0.0048 mPa·s | viscosity ([2]; m1 = 0.8391): 0.3481 ± 0.0048 mPa·s | viscosity ([2]; m1 = 1.009): 0.351 ± 0.0048 mPa·s | viscosity ([2]; m1 = 1.27): 0.3549 ± 0.0048 mPa·s | viscosity ([2]; m1 = 1.407): 0.3619 ± 0.0048 mPa·s

Structure (SMILES): CCCN [propan-1-amine]
viscosity [1]: 0.3527 ± 0.005 mPa·s

Structure (SMILES): CCCNCCC [dipropylamine] + C1CCOC1
viscosity ([2]; m1 = 0.1794): 0.332 ± 0.0047 mPa·s | viscosity ([2]; m1 = 0.285): 0.335 ± 0.0047 mPa·s | viscosity ([2]; m1 = 0.4155): 0.3388 ± 0.0047 mPa·s | viscosity ([2]; m1 = 0.5881): 0.3437 ± 0.0048 mPa·s | viscosity ([2]; m1 = 0.7109): 0.3491 ± 0.0048 mPa·s | viscosity ([2]; m1 = 0.9435): 0.3545 ± 0.0048 mPa·s | viscosity ([2]; m1 = 1.051): 0.3574 ± 0.0048 mPa·s | viscosity ([2]; m1 = 1.198): 0.364 ± 0.0048 mPa·s | viscosity ([2]; m1 = 1.357): 0.3717 ± 0.0049 mPa·s

Second part, the molecule after the results:

viscosity [1]: 0.7584 ± 0.0071 mPa·s
Structure (SMILES): CCCCNCCCC [dibutylamine]

viscosity [1]: 0.5977 ± 0.0062 mPa·s
Structure (SMILES): CCCN(CCC)CCC [tripropylamine]

viscosity ([2]; m1 = 0.1093): 1.06 ± 0.0078 mPa·s | viscosity ([2]; m1 = 0.2293): 1.045 ± 0.0077 mPa·s | viscosity ([2]; m1 = 0.3509): 1.032 ± 0.0077 mPa·s | viscosity ([2]; m1 = 0.4408): 1.022 ± 0.0076 mPa·s | viscosity ([2]; m1 = 0.5919): 1.007 ± 0.0076 mPa·s | viscosity ([2]; m1 = 0.7147): 0.9934 ± 0.0075 mPa·s | viscosity ([2]; m1 = 0.8383): 0.9807 ± 0.0075 mPa·s | viscosity ([2]; m1 = 0.9836): 0.9694 ± 0.0074 mPa·s | viscosity ([2]; m1 = 1.151): 0.9571 ± 0.0074 mPa·s
Structure (SMILES): CCCN(CCC)CCC [tripropylamine] + C1COCCO1

viscosity ([2]; m1 = 0.1482): 0.327 ± 0.0047 mPa·s | viscosity ([2]; m1 = 0.3064): 0.3293 ± 0.0047 mPa·s | viscosity ([2]; m1 = 0.4546): 0.3307 ± 0.0047 mPa·s | viscosity ([2]; m1 = 0.588): 0.3315 ± 0.0047 mPa·s | viscosity ([2]; m1 = 0.7856): 0.3361 ± 0.0047 mPa·s | viscosity ([2]; m1 = 0.8993): 0.3349 ± 0.0047 mPa·s | viscosity ([2]; m1 = 1.056): 0.3376 ± 0.0048 mPa·s | viscosity ([2]; m1 = 1.24): 0.3386 ± 0.0048 mPa·s | viscosity ([2]; m1 = 1.418): 0.341 ± 0.0048 mPa·s
Structure (SMILES): CCN(CC)CC [triethylamine] + C1CCOC1

viscosity [1]: 1.167 ± 0.0097 mPa·s
Structure (SMILES): CCCCN(CCCC)CCCC [tributylamine]

viscosity ([2]; m1 = 0.1637): 0.3385 ± 0.0047 mPa·s | viscosity ([2]; m1 = 0.3071): 0.3517 ± 0.0048 mPa·s | viscosity ([2]; m1 = 0.4107): 0.3637 ± 0.0048 mPa·s | viscosity ([2]; m1 = 0.5836): 0.3764 ± 0.0049 mPa·s | viscosity ([2]; m1 = 0.7131): 0.3894 ± 0.0049 mPa·s | viscosity ([2]; m1 = 0.9025): 0.4036 ± 0.005 mPa·s | viscosity ([2]; m1 = 1.125): 0.4181 ± 0.005 mPa·s | viscosity ([2]; m1 = 1.204): 0.4323 ± 0.0051 mPa·s | viscosity ([2]; m1 = 1.31): 0.4444 ± 0.0051 mPa·s
Structure (SMILES): CCCCN(CCCC)CCCC [tributylamine] + C1CCOC1
